Experimental findings from publication PMC4832243, “Discovery of Potent VEGFR-2 Inhibitors based on Furopyrimidine and Thienopyrimidne Scaffolds as Cancer Targeting Agents” (Scientific Reports, 2016) are described below.

In one series the target is T1, VEGFR-2 (KDR) (Homo sapiens, UniProt P35968).
T1 construct: purchased BPS Bioscience 40301
Put plainly: In vitro VEGFR-2 tyrosine kinase activity (Kinase-Glo Plus luminescence, BPS Bioscience). It is filed as biochemical. To be noted: for inhibition at 10 µM: single dose concentration of 10 μM; for IC50: 5 concentrations 1 nM - 10 μM. A general note: Kinase-Glo measures the ATP left after a reaction by luminescence.

Series [1] deals with HUVEC umbilical vein endothelial cells. Put plainly: In vitro HUVEC anti-proliferative assay (alamarBlue). It is filed as cell-based. To be noted: Homo sapiens, HUVEC proliferation at 10 μM, 72 hours; for activity at 10 µM: read-out: % Cell growth; for inhibition at 10 µM: read-out: % Cell inhibition. For orientation: The colour change of resazurin is a common sign of viable cells or microbes.

The test system of series [2] is Ehrlich ascites carcinoma (EAC) solid tumor. Briefly: In vivo anticancer activity, EAC solid tumor murine model. To be noted: 10 mg/kg/day po, once daily for 8 consecutive days. The arrangement: species or system Swiss albino mice. Here is the method: Animals. Female Swiss albino mice weighing 15–20 g were used in the present study. They were obtained from the animal breeding laboratory, National Cancer Institute (NCI), Cairo University, Egypt. Animals were kept in our animal facility, faculty of pharmacy, Ain Shams university at 25 ± 2 °C and a relative humidity of 40–45% with alternative day and night cycles of 12 h each. Animals had free access to pellet food and water ad libitum. Standard diet pellets (El-Nasr, Abu Zaabal, Egypt) contained not less than 20% protein, 5% fiber, 3.5% fat, 6.5% ash and a vitamin mixture. Animal care and experiments were conducted in accordance with the protocols approved by the Ethics Research Committee, Faculty of Pharmacy, Ain Shams University, following the Institutional Animal Care and Use Committee guidelines.
Tumor cells preparation and transplantation. Ehrlich ascites carcinoma (EAC) cells were obtained from NCI, Cairo University, Egypt. EAC cells were maintained in the ascitic form in Swiss albino mice by intraperitoneal transplantation of each mouse every 10 days. Ascitic fluid was drawn from tumor-bearing mice at the log phase (7–8th day of tumor bearing) of the tumor cells. The freshly drawn fluid was diluted with ice-cold sterile isotonic saline. 200 μl tumor cell suspension containing 2 × 10^6 tumor cells were then subcutaneously injected in each mouse.
Experimental design. Swiss albino mice were divided into six groups (n = 6 per group).
Evaluation of effectiveness. Tumor growth curve was drawn according to the change in tumor volume from first day of treatment (day 0) till day 7. Longest and shortest diameters of the solid tumor were monitored using a digital vernier caliper. Tumor volume (TV) of each animal was calculated using the following formula: […]
Tumor growth inhibition (TGI) was calculated as follows.
RTV = (Tumor volume at the day of measurement)/Tumor volume at the initial day.
Histopathological Examination
thickness by slidge microtome.
graded ethanol solutions.

The target of another series is c-Raf (Homo sapiens, UniProt P04049). Put plainly: In vitro multiple-kinase inhibition assay, c-Raf. The format is biochemical. As to the method:
(§1) In vitro multiple-kinase inhibition assay. […] Kinase enzymatic activity of the tested compounds was evaluated against a reference kinase inhibitor at 10 μM (Table 2).
(§2) The multiple kinases activity at single dose concentration of 10 μM was performed, c-Kit, c-Raf, c-Src, RET served as the enzyme source. […] Kinase-Glo Plus Luminescence kinase assay kit (Promega#V3772), ADP-Glo Luminescence assay kit was used for c-kit assay (Supplementary). […]
(§3) mM MgCl2, 0.1 mg/ml BSA, 1 mM DTT, 10 µM ATP, Kinase substrate and VEGFR. After the enzymatic reaction, 50 µl of Kinase-Glo Plus Luminescence kinase assay solution (Promega) was added to each reaction and incubate the plate for 5 minutes at room temperature.
(§4) Luminescence signal was measured using a BioTek Synergy 2 microplate reader. VEGFR activity assays were performed in duplicate at each concentration.
(§5) The luminescence data were analyzed using the computer software, Graphpad Prism. The difference between luminescence intensities in the absence of VEGFR (Lut) and in the presence of VEGFR (Luc) was defined as 100 % activity (Lut – Luc). Using luminescence signal (Lu) in the presence of the compound, % activity was calculated as:
(§6) % activity = {(Lut - Lu)/(Lut - Luc)}×100%, where Lu= the luminescence intensity in the […]
(§7) IC50 determination for inhibitor against VEGFR was calculated. The values of % activity versus a series of compound concentrations (1 nM - 10 nM - 100 nM - 1 µM - 10 µM) were then […]
(§8) or Hill coefficient. The IC50 value was determined by the concentration causing a half-maximal […]
(§9) In vitro multiple-kinase inhibition assay
(§10) Luminescence signal was measured using a BioTek Synergy 2 microplate reader […]
(§11) The luminescence data were analyzed using the same computer software and the same protocol

Another series has as its target c-Src (Homo sapiens, UniProt P12931). Put plainly: In vitro multiple-kinase inhibition assay, c-Src. It is filed as biochemical. As to the method:
as §1, §2, §3, §4, §5, §6, §7, §8, §9, §10, §11

Another series deals with c-Kit (Homo sapiens, UniProt P10721). Briefly: In vitro multiple-kinase inhibition assay, c-Kit (ADP-Glo). The format is biochemical. Here is the method:
as §1, §2, §3, §4, §5, §6, §7, §8, §9
The assay was performed using the same conditions for VEGFR-2 activity assay (section 5.2.1.1). The assays for c-Kit was an exception, it was performed using ADP-Glo Kinase assay reagents (Promega). It measures kinase activity by quantitating the ADP amount produced from the enzymatic reaction. The luminescent signal from the assay is correlated with the amount of ADP present and is directly correlated with the amount of kinase activity. Other conditions are same to the previous section except the final reaction volume was reduced to 25 µl. After the 40 min kinase reaction at 30 °C, 25 µl of ADP-Glo reagent was added and incubated for 45 min at room temperature followed by another 50 min incubation with 50 µl of Kinase detection mixture.
as §10, §11

In a further series the target is RET (Homo sapiens, UniProt P07949). Put plainly: In vitro multiple-kinase inhibition assay, RET. It is filed as biochemical. Here is the method:
as §1, §2, §3, §4, §5, §6, §7, §8, §9, §10, §11

T1 sequence (P35968 20-1356): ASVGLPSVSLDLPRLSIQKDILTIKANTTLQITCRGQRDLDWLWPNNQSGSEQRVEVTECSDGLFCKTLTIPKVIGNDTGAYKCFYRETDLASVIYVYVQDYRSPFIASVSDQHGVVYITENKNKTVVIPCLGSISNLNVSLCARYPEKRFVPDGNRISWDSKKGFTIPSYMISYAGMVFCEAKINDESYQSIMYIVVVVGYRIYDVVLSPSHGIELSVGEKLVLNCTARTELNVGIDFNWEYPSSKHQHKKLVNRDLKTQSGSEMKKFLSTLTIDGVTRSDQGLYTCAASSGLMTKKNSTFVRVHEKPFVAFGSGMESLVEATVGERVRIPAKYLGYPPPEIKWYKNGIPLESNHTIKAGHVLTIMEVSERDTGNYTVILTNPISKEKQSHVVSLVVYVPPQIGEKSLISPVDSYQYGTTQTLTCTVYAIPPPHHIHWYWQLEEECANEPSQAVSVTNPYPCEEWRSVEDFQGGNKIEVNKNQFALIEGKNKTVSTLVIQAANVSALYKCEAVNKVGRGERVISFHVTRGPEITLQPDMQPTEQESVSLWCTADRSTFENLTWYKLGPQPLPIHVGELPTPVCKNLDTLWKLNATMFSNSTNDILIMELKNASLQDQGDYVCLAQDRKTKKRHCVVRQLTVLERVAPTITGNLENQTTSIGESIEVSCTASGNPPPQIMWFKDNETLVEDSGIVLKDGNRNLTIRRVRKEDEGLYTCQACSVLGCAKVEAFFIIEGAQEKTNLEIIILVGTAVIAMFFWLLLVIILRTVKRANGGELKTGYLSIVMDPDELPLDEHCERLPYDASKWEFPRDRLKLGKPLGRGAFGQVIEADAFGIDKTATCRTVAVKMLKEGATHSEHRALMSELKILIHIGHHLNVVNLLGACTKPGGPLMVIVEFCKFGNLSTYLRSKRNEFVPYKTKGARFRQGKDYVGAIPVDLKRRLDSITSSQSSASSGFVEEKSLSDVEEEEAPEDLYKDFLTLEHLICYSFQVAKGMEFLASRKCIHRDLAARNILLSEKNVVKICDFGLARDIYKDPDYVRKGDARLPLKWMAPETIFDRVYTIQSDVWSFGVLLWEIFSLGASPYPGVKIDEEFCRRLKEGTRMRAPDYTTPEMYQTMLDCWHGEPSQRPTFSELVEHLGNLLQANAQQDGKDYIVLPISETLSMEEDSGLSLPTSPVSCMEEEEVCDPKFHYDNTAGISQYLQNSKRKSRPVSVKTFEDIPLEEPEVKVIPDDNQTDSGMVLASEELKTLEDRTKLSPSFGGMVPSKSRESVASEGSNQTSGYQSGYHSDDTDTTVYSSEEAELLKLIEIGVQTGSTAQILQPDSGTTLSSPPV
Chain of c-Src (P12931 whole entry, species assumed): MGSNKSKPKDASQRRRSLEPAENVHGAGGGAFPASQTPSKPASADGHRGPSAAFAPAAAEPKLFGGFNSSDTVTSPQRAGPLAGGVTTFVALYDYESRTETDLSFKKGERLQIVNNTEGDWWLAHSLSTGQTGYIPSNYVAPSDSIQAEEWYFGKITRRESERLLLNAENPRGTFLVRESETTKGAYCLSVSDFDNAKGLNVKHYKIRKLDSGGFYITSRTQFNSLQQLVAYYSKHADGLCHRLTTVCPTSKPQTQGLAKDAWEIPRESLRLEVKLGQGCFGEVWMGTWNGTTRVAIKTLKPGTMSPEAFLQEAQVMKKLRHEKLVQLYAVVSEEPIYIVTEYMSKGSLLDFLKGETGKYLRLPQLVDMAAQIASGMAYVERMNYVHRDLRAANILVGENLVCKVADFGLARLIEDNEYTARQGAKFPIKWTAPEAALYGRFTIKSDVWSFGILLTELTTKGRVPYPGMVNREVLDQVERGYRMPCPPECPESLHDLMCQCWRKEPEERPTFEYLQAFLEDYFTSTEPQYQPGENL
Chain of c-Kit (P10721 26-976): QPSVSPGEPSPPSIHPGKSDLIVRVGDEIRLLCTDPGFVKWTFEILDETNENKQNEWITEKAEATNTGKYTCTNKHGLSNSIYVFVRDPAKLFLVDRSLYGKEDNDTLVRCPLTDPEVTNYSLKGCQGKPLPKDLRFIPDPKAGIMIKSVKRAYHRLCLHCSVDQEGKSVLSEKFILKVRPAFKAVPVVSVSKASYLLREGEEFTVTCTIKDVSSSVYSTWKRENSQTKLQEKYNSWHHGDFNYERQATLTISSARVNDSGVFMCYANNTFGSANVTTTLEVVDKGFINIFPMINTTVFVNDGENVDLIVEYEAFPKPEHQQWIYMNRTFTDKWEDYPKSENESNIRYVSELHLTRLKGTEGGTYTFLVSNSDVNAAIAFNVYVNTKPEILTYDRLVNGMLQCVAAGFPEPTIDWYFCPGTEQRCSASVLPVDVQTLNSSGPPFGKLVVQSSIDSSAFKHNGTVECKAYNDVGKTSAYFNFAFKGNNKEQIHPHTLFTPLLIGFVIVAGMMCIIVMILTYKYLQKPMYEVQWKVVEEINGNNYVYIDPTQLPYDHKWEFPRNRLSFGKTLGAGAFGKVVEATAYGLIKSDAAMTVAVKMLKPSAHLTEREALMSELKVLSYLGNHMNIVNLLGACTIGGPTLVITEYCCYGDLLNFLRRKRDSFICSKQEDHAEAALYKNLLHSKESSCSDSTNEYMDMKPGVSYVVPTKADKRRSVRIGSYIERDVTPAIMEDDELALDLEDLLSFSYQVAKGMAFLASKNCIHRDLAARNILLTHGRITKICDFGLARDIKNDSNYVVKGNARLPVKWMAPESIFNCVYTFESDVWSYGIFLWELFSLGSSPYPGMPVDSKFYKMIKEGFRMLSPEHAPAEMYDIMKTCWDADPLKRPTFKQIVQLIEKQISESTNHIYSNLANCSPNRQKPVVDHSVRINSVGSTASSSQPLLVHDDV
Chain of RET (P07949 29-1114, species assumed): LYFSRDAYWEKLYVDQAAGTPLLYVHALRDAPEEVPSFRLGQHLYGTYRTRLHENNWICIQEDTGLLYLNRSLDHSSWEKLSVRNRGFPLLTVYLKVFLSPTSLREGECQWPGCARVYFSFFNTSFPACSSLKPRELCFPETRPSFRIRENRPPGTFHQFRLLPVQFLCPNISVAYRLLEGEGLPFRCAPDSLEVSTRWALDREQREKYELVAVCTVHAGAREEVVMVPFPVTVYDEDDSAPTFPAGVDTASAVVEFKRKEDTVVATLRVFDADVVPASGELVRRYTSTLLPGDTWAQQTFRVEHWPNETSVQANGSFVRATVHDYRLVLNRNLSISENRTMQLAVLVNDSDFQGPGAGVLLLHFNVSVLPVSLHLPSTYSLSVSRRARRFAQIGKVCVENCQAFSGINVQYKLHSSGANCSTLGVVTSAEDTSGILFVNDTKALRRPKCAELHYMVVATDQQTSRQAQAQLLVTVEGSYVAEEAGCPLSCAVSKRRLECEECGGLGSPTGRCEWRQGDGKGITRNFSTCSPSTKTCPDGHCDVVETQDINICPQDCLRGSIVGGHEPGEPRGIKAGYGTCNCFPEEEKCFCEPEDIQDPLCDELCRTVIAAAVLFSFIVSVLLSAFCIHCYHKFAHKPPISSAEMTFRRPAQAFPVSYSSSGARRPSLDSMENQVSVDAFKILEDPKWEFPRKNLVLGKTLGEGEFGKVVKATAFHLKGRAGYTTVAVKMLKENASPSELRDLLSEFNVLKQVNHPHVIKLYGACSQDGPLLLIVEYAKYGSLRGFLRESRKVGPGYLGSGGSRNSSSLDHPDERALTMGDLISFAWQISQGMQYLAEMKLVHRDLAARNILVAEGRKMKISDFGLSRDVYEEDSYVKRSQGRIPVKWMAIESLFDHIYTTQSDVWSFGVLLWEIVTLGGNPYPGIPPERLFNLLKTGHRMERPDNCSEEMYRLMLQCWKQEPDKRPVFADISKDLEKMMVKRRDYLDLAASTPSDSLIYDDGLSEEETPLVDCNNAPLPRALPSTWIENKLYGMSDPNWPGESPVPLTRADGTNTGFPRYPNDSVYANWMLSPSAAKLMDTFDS
Chain of c-Raf (P04049 whole entry, species assumed): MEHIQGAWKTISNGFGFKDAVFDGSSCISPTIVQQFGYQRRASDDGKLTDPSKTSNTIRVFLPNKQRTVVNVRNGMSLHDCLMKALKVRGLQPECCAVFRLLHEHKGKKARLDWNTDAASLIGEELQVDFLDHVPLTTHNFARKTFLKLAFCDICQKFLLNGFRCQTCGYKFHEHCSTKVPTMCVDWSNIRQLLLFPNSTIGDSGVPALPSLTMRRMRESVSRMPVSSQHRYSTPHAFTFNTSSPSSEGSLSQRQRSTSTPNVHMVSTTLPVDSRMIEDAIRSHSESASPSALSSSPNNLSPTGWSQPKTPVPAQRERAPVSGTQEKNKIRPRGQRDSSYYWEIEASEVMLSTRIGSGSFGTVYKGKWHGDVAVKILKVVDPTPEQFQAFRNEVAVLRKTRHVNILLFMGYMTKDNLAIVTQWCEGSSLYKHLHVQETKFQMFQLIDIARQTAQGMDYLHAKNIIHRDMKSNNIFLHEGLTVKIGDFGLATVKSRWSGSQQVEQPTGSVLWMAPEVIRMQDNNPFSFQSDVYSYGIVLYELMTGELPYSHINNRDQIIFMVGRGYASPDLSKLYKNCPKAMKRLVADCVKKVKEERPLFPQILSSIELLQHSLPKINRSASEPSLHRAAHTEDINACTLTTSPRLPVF

The melting point is the temperature of the solid-liquid transition. Usually inhibition stands for the percentage by which the read-out fell short of the control. With `CCOC(=O)c1c(C)oc2ncnc(Nc3ccc(NC(=O)Nc4cccc(C(C)=O)c4)cc3)c12` [Compound 15g], the melting point was in the range of 240 to 244 °C. In addition, the inhibition at 10 µM at VEGFR-2 (KDR) was more than 70%.
For `CCOC(=O)c1c(C)oc2ncnc(Nc3ccc(C(=O)Nc4ccc(C)cc4)cc3)c12` [Compound 14c], the melting point was in the range of 235 to 238 °C. Moreover, at VEGFR-2 (KDR), the inhibition at 10 µM is 14%.
Compound `O=C(Nc1ccc(Cl)cc1)Nc1ccc(Nc2ncnc3sc4c(c23)CCCC4)cc1` [Compound 20e] returned a melting point of more than 300 °C. Also, the inhibition at 10 µM on VEGFR-2 (KDR) came to 32%.
By IC50 is commonly meant the concentration needed to halve the response being measured. On to `CCOC(=O)c1c(C)oc2ncnc(Oc3ccc(NC(=O)Nc4cccc(C)c4)cc3)c12` [Compound 16b], for which the melting point lay within 116 to 119 °C. Besides, in series [1], the activity at 10 µM is 73.3% and the inhibition at 10 µM is 26.6%. Also, on VEGFR-2 (KDR), the IC50 worked out at 1000 nM and the inhibition at 10 µM is more than 70%.
`CCOC(=O)c1c(C)oc2ncnc(Nc3ccc(NC(=O)Nc4cccc(OC)c4)cc3)c12` [Compound 15c]: the melting point lay within 220 to 222 °C. Moreover, the inhibition at 10 µM at VEGFR-2 (KDR) came to 62%.
The compound `CCOC(=O)c1c(C)oc2ncnc(Nc3ccc(NC(=O)Nc4cccc(C)c4)cc3)c12` [Compound 15b] came in with a melting point of more than 250 °C. In series [1], the activity at 10 µM was determined as 0.5% and the inhibition at 10 µM was found to be 99.5%. Further, on VEGFR-2 (KDR), the IC50 was found to be 946 nM.
Compound `CCOC(=O)c1c(C)oc2ncnc(Nc3ccc(NC(=O)c4cccc(Cl)c4)cc3)c12` [Compound 13a] came in with a melting point of 232 to 236 °C. Besides, on VEGFR-2 (KDR), the inhibition at 10 µM was determined as 8%.
On to `CCOC(=O)c1c(C)oc2ncnc(Nc3ccc(NC(=O)Nc4ccccc4)cc3)c12` [Compound 15a], for which the inhibition at 10 µM on VEGFR-2 (KDR) is 19%.
On to `CCOC(=O)c1c(C)oc2ncnc(Nc3ccc(NC(=O)c4ccc(Cl)cc4)cc3)c12` [Compound 13b], for which the melting point is more than 250 °C. At VEGFR-2 (KDR), the inhibition at 10 µM amounted to 15%.
As for `CCOC(=O)c1c(C)oc2ncnc(Oc3ccc(NC(=O)Nc4cccc(OC)c4)cc3)c12` [Compound 16c], in series [1], the activity at 10 µM is 32.1% and the inhibition at 10 µM worked out at 67.9%. For the same compound, the IC50 at VEGFR-2 (KDR) was determined as 551 nM.
Compound `CCOC(=O)c1c(C)oc2ncnc(Nc3ccc(NC(=O)Nc4ccc(C)c(Cl)c4)cc3)c12` [Compound 15f] showed a melting point of 254 to 256 °C. In addition, in series [1], the activity at 10 µM worked out at 97.7% and the inhibition at 10 µM is 2.32%. Moreover, the IC50 on VEGFR-2 (KDR) was found to be 2100 nM.
With `CCOC(=O)c1c(C)oc2ncnc(Oc3ccc(NC(=O)Nc4ccc(Cl)cc4)cc3)c12` [Compound 16d], the melting point was 215 to 219 °C. Besides, on VEGFR-2 (KDR), the inhibition at 10 µM amounted to 40%.
The corresponding values for `CCOC(=O)c1c(C)oc2ncnc(Nc3ccc(C(=O)Nc4ccc(Cl)c(C(F)(F)F)c4)cc3)c12` [Compound 14d] are 238 to 240 °C and 14%.
The corresponding values for `Cc1cccc(NC(=O)Nc2ccc(Nc3ncnc4sc5c(c34)CCCC5)cc2)c1` [Compound 20b] are more than 250 °C and 47%.
As for `CNC(=O)c1cc(Oc2ccc(NC(=O)Nc3ccc(Cl)c(C(F)(F)F)c3)cc2)ccn1.Cc1ccc(S(=O)(=O)O)cc1` [Sorafenib p-toluenesulfonate, sorafenib p-toluenesulfonate, reference compound], the “TGI (%)” value in series [2] came to 80.8%.
`CC(=O)c1cccc(NC(=O)Nc2ccc(Nc3ncnc4sc5c(c34)CCCC5)cc2)c1` [Compound 20g] came in with a melting point of 265 to 269 °C. In addition, in series [1], the activity at 10 µM was 29.2% and the inhibition at 10 µM was determined as 70.8%. Besides, at VEGFR-2 (KDR), the IC50 is 1500 nM and the inhibition at 10 µM was more than 70%.
For the compound `CCOC(=O)c1c(C)oc2ncnc(Nc3ccc(NC(=O)Nc4ccc(Cl)cc4)cc3)c12` [Compound 15e], the melting point is 262 to 265 °C. In addition, the inhibition at 10 µM at VEGFR-2 (KDR) was found to be 14%.
`CCOC(=O)c1c(C)oc2ncnc(Nc3ccc(NC(=O)Nc4cccc(Br)c4)cc3)c12` [Compound 15h] yielded a melting point of 224 to 228 °C. In addition, at VEGFR-2 (KDR), the inhibition at 10 µM was determined as 45%.
Take `CCOC(=O)c1c(C)oc2ncnc(Oc3ccc(NC(=O)Nc4ccc(C)c(Cl)c4)cc3)c12` [Compound 16e]: the inhibition at 10 µM on c-Raf was 53%; on c-Src, 1%; in series [1], 11.1%; on c-Kit, 72%; at RET, 84%; at VEGFR-2 (KDR) it was more than 70%. The activity at 10 µM in series [1] is 88.9%. Besides, the IC50 at VEGFR-2 (KDR) was 122 nM.
As for `Cc1ccc(NC(=O)Nc2ccc(Nc3ncnc4sc5c(c34)CCCC5)cc2)cc1Cl` [Compound 20f], the melting point was more than 300 °C. Also, the inhibition at 10 µM at VEGFR-2 (KDR) was more than 70%.
For the compound `CN[C@@H]1C[C@H]2O[C@@](C)([C@@H]1OC)n1c3ccccc3c3c4c(c5c6ccccc6n2c5c31)C(=O)NC4` [Staurosporine, reference compound], at c-Src (read-out: Inhibition %, c-Src, reference inhibitor), the inhibition at 1 µM was determined as 98%.
`CCOC(=O)c1c(C)oc2ncnc(Oc3ccc(NC(=O)Nc4ccccc4)cc3)c12` [Compound 16a]: the melting point was in the range of 183 to 185 °C. Further, the inhibition at 10 µM at VEGFR-2 (KDR) worked out at 27%.
